Data from US5604211A, “Saccharide for supplementing energy to living body, and uses” (priority 1991, dated 1997).

Experiments:
[1] = Digestion test in vitro, enzyme of small intestinal mucous membrane; assay type: in vitro ADME; conditions: small intestinal mucosal enzyme, Tables 1 and 2, read-out: Hydrolysis rate
Description: (§1) In accordance with the method reported in K. Okada et al., Journal of Japanese Society of Nutrition and Food Science, Vol.43, No.1, pp.23-29 (1990), a crystalline neotrehalose specimen formulated by the method in Example A1-2 was prepared as an aqueous solution which was then tested for its digestibility in vitro: The digestibility was determined with the following equation and expressed as hydrolysis rate (%): [formula]
Similarly as above, several kinds of disaccharides were tested for their digestibility using the enzyme of the small intestinal mucous membrane.

[2] = Utilization test in vivo, intravenous instillation to healthy volunteers (blood sugar, insulin, urine); set-up: species or system human; conditions: for dose excreted: urine, 50000 mg, read-out: amount of glucose in the urine
Description: A neotrehalose specimen prepared by the method in Example A1-2 was treated to remove pyrogens in the usual manner, and 50 g of the resultant neotrehalose specimen was in accordance with the method reported in Matsuzaki, Yakubutsu Ryoho, Vol.6, No.2, pp.65-72 (1973), formulated as a 10 w/v % aqueous solution which was then intravenously administered to 2 healthy volunteers by instillation. Their blood was sampled at prescribed time intervals and blood sugar and insulin levels were measured, along with the amount of neotrehalose secreted in their urine. As controls, glucose and maltose were used.

[3] = acidic conditions; cited from earlier work
[4] = prior art, Japanese patent publications; cited from earlier work
[5] = test system: amylases; conditions: Japanese Patent Laid-Open No.240,758/88; cited from earlier work
[6] = Digestion test in vitro, amylopsin; assay type: in vitro ADME; conditions: Table 1, read-out: Hydrolysis rate
Description: as §1

[7] = test system: dd mice; assay: Acute toxicity test, oral, mice; assay type: in vivo, mouse; conditions: 7 week-old dd mice
Description: A crystalline neotrehalose specimen, prepared by the method in Example A1-2, was orally administered to 7 week-old dd mice as an acute toxicity test. […] Therefore, the toxicity of the tested substance appears to be extremely low.

[8] = Digestion test in vitro, gastric juice; assay type: in vitro ADME; conditions: Table 1, read-out: Hydrolysis rate
Description: as §1

[9] = Utilization test in vivo, oral administration to healthy volunteers (blood sugar and insulin); set-up: species or system human
Description: In accordance with the method described in H. Atsuji et al., Journal of Clinical Nutrition, Vol.41, Vol.2, pp.200-208 (1972), 30 g of a neotrehalose specimen was formulated as a 20 w/v % aqueous solution which was then orally administered to 3 healthy volunteers (men) and their blood was sampled at prescribed time intervals and tested for blood sugar and insulin levels. As a control, glucose was used.

[10] = Digestion test in vitro, salivary amylase; assay type: in vitro ADME; conditions: Table 1, read-out: Hydrolysis rate
Description: as §1

[11] = when the dose and administration method are not correctly chosen; cited from earlier work
[12] = human, 50 g as 10 w/v % aqueous solution, intravenous instillation, 2 healthy volunteers
[13] = 50 g as 10 w/v % aqueous solution, intravenous instillation, 2 healthy volunteers
[14] = 30 g as 20 w/v % aqueous solution, oral, 3 healthy volunteers, about

SMILES: OC[C@H]1O[C@@H](O[C@@H]2O[C@H](CO)[C@@H](O)[C@H](O)[C@H]2O)[C@H](O)[C@@H](O)[C@@H]1O [Isotrehalose (β,β-trehalose), β,β-trehalose]
- metabolised [1]: 0.1%

SMILES: OC[C@H]1O[C@H](O[C@H]2[C@H](O)[C@@H](O)[C@H](O)O[C@@H]2CO)[C@H](O)[C@@H](O)[C@@H]1O [Maltose, reference compound]
- dose excreted [2, 12]: < 20%

SMILES: OC[C@H]1O[C@@](CO)(O[C@H]2O[C@H](CO)[C@@H](O)[C@H](O)[C@H]2O)[C@@H](O)[C@@H]1O [Sucrose]
- hydrolysis into glucose and fructose [3]: readily hydrolyzed

SMILES: OC[C@H]1O[C@H](O[C@H]2O[C@H](CO)[C@@H](O)[C@H](O)[C@H]2O)[C@H](O)[C@@H](O)[C@@H]1O [Trehalose (α,α-trehalose), α,α-trehalose]
- metabolised [1]: 0.4%
- metabolism and utilization in vivo [4]: not readily metabolized and absorbed by the human body
- hydrolysis by enzymes such as amylases [5]: not readily hydrolyzed

SMILES: OC[C@H]1OC(O)[C@H](O)[C@@H](O)[C@@H]1O (stereo partly drawn) [glucose, reference compound]
- blood sugar level ([2]; human, in vivo, iv): greatly increased
- insulin level ([2]; human, in vivo, iv): greatly increased
- dose excreted [2, 12]: < 10%

SMILES: OC[C@@H](O)[C@@H](O[C@@H]1O[C@H](CO)[C@H](O)[C@H](O)[C@H]1O)[C@H](O)[C@@H](O)CO [lactitol]
- metabolism and utilization in vivo [4]: not readily metabolized and utilized in vivo

SMILES: OC[C@@H](O)[C@@H](O[C@H]1O[C@H](CO)[C@@H](O)[C@H](O)[C@H]1O)[C@H](O)[C@@H](O)CO [maltitol]
- metabolism and utilization in vivo [4]: not readily metabolized and utilized in vivo

SMILES: OC[C@H]1O[C@@H](O[C@H]2O[C@H](CO)[C@@H](O)[C@H](O)[C@H]2O)[C@H](O)[C@@H](O)[C@@H]1O [neotrehalose, O-α-D-glucopyranosyl β-D-glucopyranoside]
- metabolised [6]: 0%
- toxicity [7]: extremely low
- highest administered dose without animal death ([7]; difficult to administer a higher dose): 5 g
- animal death ([7]; up to 5 g): no animal death
- blood sugar level [2, 13]: slightly increased
- insulin level [2, 13]: did not greatly increase
- dynamics of blood sugar and insulin compared with maltose ([2]; 50 g intravenous, controls glucose and maltose): the same dynamics as maltose
- dose excreted [2, 12]: < 20%
- metabolised [1]: 43%
- metabolised [8]: 0%
- time of maximum value of blood sugar level after oral administration [9, 14]: 0.5 to 1 h
- time of maximum value of insulin level after oral administration [9, 14]: 0.5 to 1 h
- behaviour of blood sugar and insulin levels compared with glucose ([9]; 30 g oral, control glucose): behaved similarly as glucose
- metabolised [10]: 0%

SMILES: OC[C@@H](O)[C@@H](O)[C@H](O)[C@@H](O)CO [sorbitol]
- diarrhea [11]: acute diarrhea

SMILES: OC[C@@H](O)[C@H](O)[C@@H](O)CO [xylitol]
- diarrhea [11]: acute diarrhea
